# Test results as given in PMC8800111 (The Journal of Biological Chemistry, 2021).
# What was measured:
# DHFR [1] = molecular target: T1, DHFR (Homo sapiens, UniProt P00374); test: Cellular thermal shift assay (CETSA) in U3A cell lysate; assay type: binding; details: 10 μM, 10 min
# T1 sequence (P00374 1-187): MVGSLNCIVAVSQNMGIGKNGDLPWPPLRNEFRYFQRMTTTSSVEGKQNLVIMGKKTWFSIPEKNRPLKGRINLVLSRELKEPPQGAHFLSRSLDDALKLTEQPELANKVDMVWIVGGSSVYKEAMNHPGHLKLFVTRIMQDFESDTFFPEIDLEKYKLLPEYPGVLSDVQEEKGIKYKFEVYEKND
# Procedure: (§1) Protein abundance was measured by immunoblotting and band quantification.
# (§2) U3A cells were cultured in DMEM (Thermo Fisher Scientific) with 10% heat-inactivated fetal bovine serum and 1% penicillin/streptomycin. […] Cells were washed once with PBS, harvested using trypsin, and centrifuged at 300g. The pellet was resuspended in Tris-buffered saline (TBS) supplemented with cOmplete protease inhibitor cocktail (Roche), aliquoted (50 μl; 8 × 10^5 cells per temperature) into PCR strip tubes, and heated at the indicated temperature in a Veriti Thermal Cycler (Applied Biosystems) for 3 min, then cooled for another 3 min at room temperature. Cells were then lysed by freeze–thawing three times with 3-min incubations in an ethanol/dry ice bath and a water bath at 37 °C. The lysates were then centrifuged at 17,000g for 20 min at 4 °C to remove cellular debris and pelleted protein aggregates. Supernatants (40 μl) were transferred to new tubes and prepared for immunoblotting. […] Briefly, U3A cells in exponential growth rate were collected, resuspended in TBS supplemented with cOmplete protease inhibitor cocktail (Roche), lysed by freeze–thaw cycle, and centrifuged at 17,000g for 20 min at 4 °C. […] Band intensities were quantified using Fiji ([42]) and then plotted and fitted in GraphPad Prism (GraphPad Software, Inc) to obtain apparent Tagg values.
# DHFR [2] = molecular target: T1, DHFR
# [3] = parameters: method as in printed; details: patients taking this drug for months at a time; ref not given; cited from earlier work
# [4] = system: STAT3 DNA binding in SKBR3 cells; test: Chromatin immunoprecipitation, STAT3 binding at target genes; assay type: cell-based, human; details: 10 μM 1 h, 10 ng/ml LIF 30 min
# Procedure: Binding at the indicated target genes was assessed by quantitative RT–PCR. Data are expressed as percent of input.
# Nuclei were centrifuged at 660g for 5 min at 4 °C and lysed in 300 μl of nuclear lysis buffer (50 mM Tris [pH 8.1], 10 mM EDTA, 1% SDS, and phosphatase and protease inhibitors). […] Lysate was then added to 60 μl of Protein A/G PLUS agarose beads (catalog no.: 2003; Santa Cruz Biotechnology) and rotated for 4 to 6 h at 4 °C. […] Beads were resuspended in 150 μl elution buffer (100 mM sodium bicarbonate and 1% SDS) and incubated overnight at 65 °C. DNA was purified using a PCR Purification Kit (Qiagen) according to the manufacturer's protocol. qPCR was performed using the indicated primers (Table S3). Results were normalized to input.
# DHFR [5] = molecular target: T1, DHFR; test: Cellular thermal shift assay (CETSA) in intact U3A cells; assay type: cell-based; details: 10 μM, 10 min
# Procedure: as §1, §2
# CHCHD2 = CHCHD2 (Homo sapiens, UniProt Q9Y6H1); test: as above; assay type: cell-based; details: 10 μM, 10 min
# Procedure: as §1
# U3A cells were cultured in DMEM (Thermo Fisher Scientific) with 10% heat-inactivated fetal bovine serum and 1% penicillin/streptomycin. […] Cells were washed once with PBS, harvested using trypsin, and centrifuged at 300g. The pellet was resuspended in Tris-buffered saline (TBS) supplemented with cOmplete protease inhibitor cocktail (Roche), aliquoted (50 μl; 8 × 10^5 cells per temperature) into PCR strip tubes, and heated at the indicated temperature in a Veriti Thermal Cycler (Applied Biosystems) for 3 min, then cooled for another 3 min at room temperature. Cells were then lysed by freeze–thawing three times with 3-min incubations in an ethanol/dry ice bath and a water bath at 37 °C. The lysates were then centrifuged at 17,000g for 20 min at 4 °C to remove cellular debris and pelleted protein aggregates. Supernatants (40 μl) were transferred to new tubes and prepared for immunoblotting. […] DHFR stabilization was evaluated with superoxide dismutase 1 as a thermostable loading control. Band intensities were quantified using Fiji ([42]) and then plotted and fitted in GraphPad Prism (GraphPad Software, Inc) to obtain apparent Tagg values.
# (A) DHFR protein levels in Fig 2C were quantified and plotted. […] Soluble protein levels were analyzed by immunoblotting with the indicated antibodies. […]
# DHFR [6] = molecular target: T1, DHFR; details: DHFR enzymatic IC50
# [7] = Apoptosis assay (FITC annexin V / propidium iodide flow cytometry); assay type: cell-based; details: human; U3A cells, 6 h time point, same treatment as ATP assay; read-out: viable cells
# STAT5 = details: original high-throughput screen; cited from earlier work
# [8] = system: STAT3 target genes in SKBR3 cells; test: STAT3 target gene expression by qRT-PCR in SKBR3 cells; assay type: cell-based, human; details: 10 μM 1 h, OSM 60 min
# Procedure: Cells were stimulated with 10 ng/ml interleukin 6 (Peprotech) or 10 ng/ml OSM (Peprotech). Cells were stimulated for 15 min for whole cell lysate immunoblotting, 60 to 90 min for qRT–PCR, and 5 to 6 h for luciferase reporter assays.
# Total RNA was extracted from cells using the RNeasy Mini Kit (Qiagen). Complementary DNA was generated using the TaqMan Reverse Transcription Reagents (Invitrogen). qPCR was performed in triplicate or quadruplicate using the Power SYBR Green PCR Master Mix (Invitrogen) on a 7500 Real-Time PCR System (Applied Biosystems) or a QuantStudio 6 Flex Real-Time PCR System (Applied Biosystems). Specificity of amplification was confirmed by melting curve analysis. Cycle threshold (CT) values for target genes were normalized to the endogenous reference gene GAPDH. Primer sequences (Table S3) were designed from the University of California Santa Cruz genome browser reference mRNA sequences using Primer3 ([43]).
# [9] = molecular target: proteins of U3A human fibrosarcoma cells (4462 proteins detected) (Homo sapiens, UniProt Q16763); assay type: cell-based; details: protein UBE2S; U3A, 10 μM, 2 h
# [10] = molecular target: proteins of U3A human fibrosarcoma cells (4462 proteins detected) (Homo sapiens, UniProt Q8NFQ8); assay type: cell-based; details: protein TOR1AIP2; U3A cells
# [11] = molecular target: proteins of U3A human fibrosarcoma cells (4462 proteins detected) (Homo sapiens, UniProt Q9NP64); assay type: cell-based; details: protein ZCCHC17; soluble abundance after heat, U3A cells
# [12] = molecular target: proteins of U3A human fibrosarcoma cells (4462 proteins detected) (Homo sapiens, UniProt P61088); assay type: cell-based; details: protein UBE2N; UBE2NL; U3A cells
# [13] = molecular target: proteins of U3A human fibrosarcoma cells (4462 proteins detected) (Homo sapiens, UniProt Q4VC31); assay type: cell-based; details: protein CCDC58; U3A cells
# [14] = molecular target: proteins of U3A human fibrosarcoma cells (4462 proteins detected) (Homo sapiens, UniProt Q9UNX4); assay type: cell-based; details: protein WDR3; U3A cells
# [15] = molecular target: proteins of U3A human fibrosarcoma cells (4462 proteins detected) (Homo sapiens, UniProt Q4KWH8); assay type: cell-based; details: protein PLCH1; U3A, 10 μM, 2 h
# [16] = molecular target: proteins of U3A human fibrosarcoma cells (4462 proteins detected) (Homo sapiens, UniProt P15586); assay type: cell-based; details: protein GNS, U3A cells
# [17] = molecular target: proteins of U3A human fibrosarcoma cells (4462 proteins detected) (Homo sapiens, UniProt Q8IVL6); assay type: cell-based; details: protein LEPREL2; soluble abundance after heat, U3A cells
# [18] = molecular target: proteins of U3A human fibrosarcoma cells (4462 proteins detected) (Homo sapiens, UniProt P49321); assay type: cell-based; details: protein NASP, U3A cells
# [19] = molecular target: proteins of U3A human fibrosarcoma cells (4462 proteins detected) (Homo sapiens, UniProt Q9Y5P4); assay type: cell-based; details: protein COL4A3BP; soluble abundance after heat, U3A cells
# [20] = molecular target: proteins of U3A human fibrosarcoma cells (4462 proteins detected) (Homo sapiens, UniProt O60749); assay type: cell-based; details: protein SNX2; U3A cells
# [21] = molecular target: proteins of U3A human fibrosarcoma cells (4462 proteins detected) (Homo sapiens, UniProt Q12893); assay type: cell-based; details: protein TMEM115; U3A, 10 μM, 2 h
# [22] = molecular target: proteins of U3A human fibrosarcoma cells (4462 proteins detected) (Homo sapiens, UniProt P42766); assay type: cell-based; details: protein RPL35; U3A cells
# [23] = molecular target: proteins of U3A human fibrosarcoma cells (4462 proteins detected) (Homo sapiens, UniProt Q96D46); assay type: cell-based; details: protein NMD3; soluble abundance after heat, U3A cells
# U3A cells = test: Cellular ATP levels (CellTiter-Glo); assay type: cell-based, human; details: 10 μM, 6 h
# [24] = 11 μM DHFR, 130 μM ligand, 200 μM NADPH, […] DMSO, 25 °C
# proteins of U3A human fibrosarcoma cells (4462 proteins detected) (Homo sapiens, UniProt Q12893), sequence (Q12893 whole entry): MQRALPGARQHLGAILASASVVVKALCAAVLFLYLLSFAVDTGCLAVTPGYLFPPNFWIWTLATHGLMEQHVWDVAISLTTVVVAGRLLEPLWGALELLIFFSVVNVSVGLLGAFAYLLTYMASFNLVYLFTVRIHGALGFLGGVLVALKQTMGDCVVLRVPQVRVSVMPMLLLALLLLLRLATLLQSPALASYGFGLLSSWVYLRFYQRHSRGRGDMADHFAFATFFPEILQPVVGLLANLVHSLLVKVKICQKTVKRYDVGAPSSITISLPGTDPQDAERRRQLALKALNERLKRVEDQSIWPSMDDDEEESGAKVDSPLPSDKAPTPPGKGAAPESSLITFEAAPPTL
# proteins of U3A human fibrosarcoma cells (4462 proteins detected) (Homo sapiens, UniProt Q4KWH8), sequence (Q4KWH8 whole entry): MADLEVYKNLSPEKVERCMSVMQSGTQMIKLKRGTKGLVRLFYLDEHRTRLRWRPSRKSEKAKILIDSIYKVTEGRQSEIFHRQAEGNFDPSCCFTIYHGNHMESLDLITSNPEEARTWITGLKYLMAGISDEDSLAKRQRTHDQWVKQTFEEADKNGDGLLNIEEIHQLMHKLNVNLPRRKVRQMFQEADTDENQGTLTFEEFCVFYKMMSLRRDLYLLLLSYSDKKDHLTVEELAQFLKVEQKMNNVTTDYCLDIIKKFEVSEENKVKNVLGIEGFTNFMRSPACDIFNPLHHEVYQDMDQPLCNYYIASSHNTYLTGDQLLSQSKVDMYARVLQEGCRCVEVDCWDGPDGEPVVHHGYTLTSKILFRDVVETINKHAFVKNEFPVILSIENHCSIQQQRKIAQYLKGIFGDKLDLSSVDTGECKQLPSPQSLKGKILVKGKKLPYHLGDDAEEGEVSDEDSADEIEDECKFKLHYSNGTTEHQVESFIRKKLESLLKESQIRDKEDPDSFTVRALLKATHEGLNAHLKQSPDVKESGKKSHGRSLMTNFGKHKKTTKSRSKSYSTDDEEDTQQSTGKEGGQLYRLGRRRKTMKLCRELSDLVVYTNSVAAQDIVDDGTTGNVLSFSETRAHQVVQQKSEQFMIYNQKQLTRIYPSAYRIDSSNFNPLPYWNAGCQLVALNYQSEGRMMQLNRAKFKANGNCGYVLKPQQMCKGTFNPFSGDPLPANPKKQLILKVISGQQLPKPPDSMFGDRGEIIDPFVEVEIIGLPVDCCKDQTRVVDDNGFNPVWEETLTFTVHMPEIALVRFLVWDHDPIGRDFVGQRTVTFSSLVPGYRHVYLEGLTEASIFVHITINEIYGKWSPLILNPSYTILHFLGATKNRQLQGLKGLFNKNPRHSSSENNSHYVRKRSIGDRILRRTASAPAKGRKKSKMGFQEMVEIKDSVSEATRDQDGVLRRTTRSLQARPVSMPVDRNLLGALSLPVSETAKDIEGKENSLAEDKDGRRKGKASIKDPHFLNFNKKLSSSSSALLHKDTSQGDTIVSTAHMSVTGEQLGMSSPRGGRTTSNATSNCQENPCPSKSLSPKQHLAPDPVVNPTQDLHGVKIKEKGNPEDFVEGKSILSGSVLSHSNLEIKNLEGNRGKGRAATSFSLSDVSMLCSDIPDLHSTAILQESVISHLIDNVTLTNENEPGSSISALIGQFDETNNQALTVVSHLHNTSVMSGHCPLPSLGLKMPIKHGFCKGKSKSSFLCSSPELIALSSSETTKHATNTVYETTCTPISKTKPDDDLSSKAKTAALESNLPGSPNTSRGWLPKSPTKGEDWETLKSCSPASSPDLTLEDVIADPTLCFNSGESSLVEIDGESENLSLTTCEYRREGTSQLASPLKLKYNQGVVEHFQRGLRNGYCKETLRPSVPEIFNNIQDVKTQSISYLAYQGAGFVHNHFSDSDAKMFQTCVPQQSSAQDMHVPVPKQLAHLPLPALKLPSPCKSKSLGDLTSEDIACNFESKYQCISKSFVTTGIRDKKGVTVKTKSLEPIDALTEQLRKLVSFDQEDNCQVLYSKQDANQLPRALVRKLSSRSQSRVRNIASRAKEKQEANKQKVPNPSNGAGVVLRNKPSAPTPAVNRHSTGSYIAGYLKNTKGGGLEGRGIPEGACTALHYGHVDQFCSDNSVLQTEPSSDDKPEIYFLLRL
# proteins of U3A human fibrosarcoma cells (4462 proteins detected) (Homo sapiens, UniProt P15586), sequence (P15586 37-552): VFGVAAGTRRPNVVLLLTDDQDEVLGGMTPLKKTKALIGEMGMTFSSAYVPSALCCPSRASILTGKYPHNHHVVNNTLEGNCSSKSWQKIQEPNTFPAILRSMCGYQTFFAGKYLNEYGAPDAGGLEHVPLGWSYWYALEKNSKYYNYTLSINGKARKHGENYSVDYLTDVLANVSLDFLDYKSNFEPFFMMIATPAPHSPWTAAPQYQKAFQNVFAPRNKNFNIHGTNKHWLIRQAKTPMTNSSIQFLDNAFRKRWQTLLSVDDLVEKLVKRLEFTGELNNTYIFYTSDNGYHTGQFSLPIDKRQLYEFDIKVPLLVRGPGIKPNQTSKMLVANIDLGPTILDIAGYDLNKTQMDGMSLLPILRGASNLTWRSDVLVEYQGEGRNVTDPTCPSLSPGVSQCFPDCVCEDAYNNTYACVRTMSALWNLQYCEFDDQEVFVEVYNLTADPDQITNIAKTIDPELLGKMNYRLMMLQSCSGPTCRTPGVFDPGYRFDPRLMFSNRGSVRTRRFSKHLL
# proteins of U3A human fibrosarcoma cells (4462 proteins detected) (Homo sapiens, UniProt P49321), sequence (P49321 whole entry): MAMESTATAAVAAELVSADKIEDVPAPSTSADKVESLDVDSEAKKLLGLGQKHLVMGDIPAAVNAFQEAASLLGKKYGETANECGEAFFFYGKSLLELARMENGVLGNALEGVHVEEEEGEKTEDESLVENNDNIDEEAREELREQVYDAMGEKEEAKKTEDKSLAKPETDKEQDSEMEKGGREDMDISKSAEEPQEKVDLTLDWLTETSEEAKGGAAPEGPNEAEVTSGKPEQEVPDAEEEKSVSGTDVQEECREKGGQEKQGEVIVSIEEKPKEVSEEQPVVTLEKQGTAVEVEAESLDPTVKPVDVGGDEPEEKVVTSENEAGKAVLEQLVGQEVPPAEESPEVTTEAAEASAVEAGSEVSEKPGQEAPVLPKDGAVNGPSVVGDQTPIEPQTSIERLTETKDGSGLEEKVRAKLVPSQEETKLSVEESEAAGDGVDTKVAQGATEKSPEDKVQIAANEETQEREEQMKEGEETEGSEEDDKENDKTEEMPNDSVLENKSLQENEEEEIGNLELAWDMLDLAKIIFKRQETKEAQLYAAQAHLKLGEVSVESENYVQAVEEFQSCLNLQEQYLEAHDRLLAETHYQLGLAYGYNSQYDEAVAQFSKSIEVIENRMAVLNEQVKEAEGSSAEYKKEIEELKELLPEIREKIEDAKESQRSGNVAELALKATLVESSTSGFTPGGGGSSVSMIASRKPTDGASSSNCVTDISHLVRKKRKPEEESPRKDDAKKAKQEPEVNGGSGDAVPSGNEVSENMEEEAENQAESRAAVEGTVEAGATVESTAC
# proteins of U3A human fibrosarcoma cells (4462 proteins detected) (Homo sapiens, UniProt P61088), sequence (P61088 whole entry): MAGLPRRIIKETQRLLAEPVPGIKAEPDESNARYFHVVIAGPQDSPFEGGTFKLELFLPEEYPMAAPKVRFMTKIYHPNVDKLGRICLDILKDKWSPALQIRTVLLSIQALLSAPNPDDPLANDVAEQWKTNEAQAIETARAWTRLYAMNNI
# CHCHD2, sequence (Q9Y6H1 whole entry): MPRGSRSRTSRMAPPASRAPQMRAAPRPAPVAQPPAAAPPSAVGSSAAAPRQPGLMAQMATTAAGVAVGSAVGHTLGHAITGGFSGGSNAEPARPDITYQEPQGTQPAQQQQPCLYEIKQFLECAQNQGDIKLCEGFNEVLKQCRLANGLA
# proteins of U3A human fibrosarcoma cells (4462 proteins detected) (Homo sapiens, UniProt Q8IVL6), sequence (Q8IVL6 21-736): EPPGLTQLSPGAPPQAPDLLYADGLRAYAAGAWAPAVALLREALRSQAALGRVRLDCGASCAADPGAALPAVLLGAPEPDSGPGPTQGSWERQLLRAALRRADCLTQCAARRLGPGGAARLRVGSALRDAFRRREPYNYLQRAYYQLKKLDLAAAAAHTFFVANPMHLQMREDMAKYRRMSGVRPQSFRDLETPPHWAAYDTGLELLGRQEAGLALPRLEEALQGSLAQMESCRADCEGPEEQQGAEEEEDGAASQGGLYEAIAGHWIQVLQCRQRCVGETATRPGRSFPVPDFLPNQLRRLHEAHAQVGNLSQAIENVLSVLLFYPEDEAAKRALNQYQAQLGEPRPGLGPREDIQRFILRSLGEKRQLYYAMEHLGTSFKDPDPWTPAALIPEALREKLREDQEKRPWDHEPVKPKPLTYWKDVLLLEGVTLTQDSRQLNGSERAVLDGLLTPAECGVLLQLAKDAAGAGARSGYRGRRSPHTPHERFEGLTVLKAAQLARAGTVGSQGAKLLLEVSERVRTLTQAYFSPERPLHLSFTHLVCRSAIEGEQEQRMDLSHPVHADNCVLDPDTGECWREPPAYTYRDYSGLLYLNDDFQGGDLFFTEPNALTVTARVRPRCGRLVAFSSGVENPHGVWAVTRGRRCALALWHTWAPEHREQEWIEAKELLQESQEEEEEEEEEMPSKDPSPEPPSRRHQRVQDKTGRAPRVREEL
# proteins of U3A human fibrosarcoma cells (4462 proteins detected) (Homo sapiens, UniProt Q96D46), sequence (Q96D46 whole entry): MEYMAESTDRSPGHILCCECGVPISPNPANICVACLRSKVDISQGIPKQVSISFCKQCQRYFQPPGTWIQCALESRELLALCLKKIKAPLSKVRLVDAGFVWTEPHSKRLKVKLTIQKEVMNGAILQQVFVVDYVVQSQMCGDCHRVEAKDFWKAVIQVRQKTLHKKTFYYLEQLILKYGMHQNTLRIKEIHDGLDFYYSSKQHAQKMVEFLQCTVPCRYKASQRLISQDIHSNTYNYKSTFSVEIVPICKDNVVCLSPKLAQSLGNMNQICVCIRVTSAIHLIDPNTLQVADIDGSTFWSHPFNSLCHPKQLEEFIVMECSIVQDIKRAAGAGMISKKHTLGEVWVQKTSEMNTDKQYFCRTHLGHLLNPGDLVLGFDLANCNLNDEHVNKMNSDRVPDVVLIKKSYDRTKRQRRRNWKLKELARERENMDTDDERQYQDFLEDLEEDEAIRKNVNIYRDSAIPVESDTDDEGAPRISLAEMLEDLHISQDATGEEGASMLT
# proteins of U3A human fibrosarcoma cells (4462 proteins detected) (Homo sapiens, UniProt Q4VC31), sequence (Q4VC31 whole entry): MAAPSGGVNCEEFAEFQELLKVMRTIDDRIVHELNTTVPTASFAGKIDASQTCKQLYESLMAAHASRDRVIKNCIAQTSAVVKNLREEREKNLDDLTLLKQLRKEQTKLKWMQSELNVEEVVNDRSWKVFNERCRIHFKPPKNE
smiles,measurement,setting,value
CCc1nc(N)nc(N)c1-c1ccc(Cl)cc1 [pyrimethamine],DHFR aggregation temperature (Tagg) in the presence of drug,DHFR [1],~53.2 °C
same,ΔH,DHFR [2]; [24],-11.6 ± 0.7 kcal/mol
same,ΔS,DHFR [2]; [24],−2.8 ± 1 cal/mol/°C
same,stoichiometry,DHFR [2]; one-site model,1.0 ± 0.2 sites
same,concentration routinely achieved in the serum of patients,[3],10 µM
same,LIF-stimulated STAT3 binding at BCL6,[4],minimal reduction
same,DHFR aggregation temperature (Tagg) in the presence of drug,DHFR [5],50.6 °C
same,CHCHD2 stabilization by CETSA,CHCHD2,failed to validate
same,difference in potency between pyrimethamine and methotrexate,DHFR [6],~500 fold
same,"viability at 6 h, 10 μM",[7],~100%
same,transcriptional activity of STAT5,STAT5,no effect
same,OSM-stimulated BCL6 expression,[8],significantly reduced
same,"Log2 (PYR/DMSO), UBE2S",[9],0.25
same,Log2 (PYR/DMSO),[10],0.17
same,Log2 (PYR/DMSO),[11],0.15
same,Log2 (PYR/DMSO),[12],0.21
same,Log2 (PYR/DMSO),[13],0.20
same,Log2 (PYR/DMSO),[14],0.17
same,"Log2 (PYR/DMSO), PLCH1",[15],0.32
same,Log2 (PYR/DMSO),[16],-0.04
same,Log2 (PYR/DMSO),[17],0.14
same,Log2 (PYR/DMSO),[18],-0.04
same,Log2 (PYR/DMSO),[19],0.13
same,Log2 (PYR/DMSO),[20],0.17
same,"Log2 (PYR/DMSO), TMEM115",[21],0.38
same,Log2 (PYR/DMSO),[22],0.20
same,Log2 (PYR/DMSO),[23],0.13
same,reduction of cellular ATP levels,U3A cells,about 75%
